This is an account of results in patent publication US6838090B2, “Water-insoluble drug delivery system” (priority 1998, dated 2005).

The subject of one data set is HSP90. To be noted: 40 mg/kg i.v. single dose; 48-hours and 72-hours after administration.
Another data set relates to p185. As to the kind of experiment: p185 expression in xenografts by western blot analysis. To be noted: 40 mg/kg i.v. single dose. Format: in vivo, SCID mice bearing human breast cancer xenografts. Background: In xenograft studies the graft and the host belong to different species.
The next data set concerns HSP70. As to the kind of experiment: HSP70 level in tumor tissue by western blot analysis. To be noted: 40 mg/kg i.v. single dose. Format: in vivo, SCID mice bearing human breast cancer xenografts.

For the compound `CO[C@H]1C=C/C=C(\C)C(=O)NC2=CC(=O)C(N)=C(C[C@@H](C)C[C@H](OC)[C@H](O)[C@@H](C)/C=C(\C)[C@@H]1OC(N)=O)C2=O` (stereo in doubt) [Example 17-AG], where the note is “mouse, in vivo, iv, 40 mg/kg”, the “concentration in tumor tissue” value was in the range of 0.5 to 1 µg/g and the “time remaining detectable in tumor tissue after administration” value was “more than 48 hours”.
For the compound `C=CCNC1=C2C[C@@H](C)C[C@H](OC)[C@H](O)[C@@H](C)/C=C(\C)[C@H](OC(N)=O)[C@@H](OC)/C=C\C=C(/C)C(=O)NC(=CC1=O)C2=O` [Example 17-AAG, 17-allylaminogeldanamycin], where the note is “single intravenous dose of 40 mg/kg, SCID mice, 7-hours post-administration, HPLC”, the “concentration in normal tissues” value is reported as “below detection levels”. Moreover, the “HSP90 concentration in tumor tissue of treated vs untreated mice” value in the data set on HSP90 is listed as “elevated”. The “increase of p185 expression in xenografts over untreated mice” value in the data set with p185 (2-hours after administration) was 2 fold. Also, the “p185 expression in xenografts below control levels” value in the data set with p185 (7-hours, 24-hours and 48-hours after administration) worked out at 30%. Besides, the “HSP70 concentration in tumor tissue of treated vs untreated mice” value in the data set on HSP70 (4-hours and 7-hours after administration) is reported as “lower”; with HSP70 (48-hours and 72-hours after administration), “elevated”.
